{"source": "paper PMC4810081", "about": "“Venetoclax (ABT-199) Might Act as a Perpetrator in Pharmacokinetic Drug–Drug Interactions” (Pharmaceutics, 2016)", "key": {"UGT1A9": {"tested_on": "UGT1A9", "test": "Induction assay, UGT1A9 mRNA by real-time RT-PCR in LS180 cells", "type": "in vitro ADME, human", "conditions": "four days, 10 µM", "method": "(§1) LS180 cells. The human colon adenocarcinoma cell line LS180 (available at ATCC, Manassas, VA, USA) is one of the standard models for investigating pregnane X receptor (PXR) and aryl hydrocarbon receptor (AhR) mediated induction and was thus used for induction experiments. Cells were cultured under standard cell culture conditions with DMEM supplemented with 10% FCS, 2 mM of glutamine, 100 U/mL of penicillin, 100 µg/mL of streptomycin sulfate, and 0.1 mM of nonessential amino acids.\n(§2) For the induction experiments, LS180 cells were seeded in 75 cm^2 culturing flasks and incubated for three days. […]\n(§3) RNA was isolated using the GenElute™ Mammalian Total RNA Miniprep Kit, and cDNA was synthesized with the RevertAid™ H Minus First Strand cDNA Synthesis Kit according to the manufacturer's instructions. mRNA expression was quantified by real-time RT-PCR with the LightCycler® 480 (Roche Applied Science, Mannheim, Germany) as described previously. […] Data were evaluated via calibrator-normalized relative quantification with efficiency correction using the LightCycler® 480 software version 1.5 (Roche Applied Science, Mannheim, Germany). […] The following target genes were quantified: CYP1A1, CYP1A2, CYP3A4, ABCB1, ABCC2, ABCG2, SLCO1B1 (coding for OATP1B1), UDP-glucuronosyltransferase 1A3 (UGT1A3), and UGT1A9."}, "MDCKII": {"tested_on": "MDCKII", "test": "Growth inhibition assay in MDCKII cells", "type": "cell-based", "conditions": "Canis lupus familiaris, MDCK-II; MDCKII parental cells", "text": "MDCKII cells. The transporter over-expressing cell lines MDCKII-MDR1 [5], MDCKII-MRP2 [6], and MDCKII-BCRP [7] and the corresponding parental cell line MDCKII were used to assess the sensitivity of cells with and without P-gp, multidrug resistance-associated protein 2 (MRP2/ABCC2), or BCRP expression. Moreover, MDCKII-BCRP cells were used to assess BCRP inhibition by venetoclax. MDCKII over-expressing cell lines were kindly provided by A. H. Schinkel and P. Borst (Amsterdam, The Netherlands). The parental cell line MDCKII (available at ATCC, Manassas, VA, USA) was used as a control. The cells were cultured in Dulbecco’s Modified Eagle’s Medium (DMEM) containing 10% FCS, 2 mM of glutamine, 100 U/mL of penicillin, and 100 µg/mL of streptomycin sulfate.\nGrowth inhibition assays in LS180 cells were conducted to determine suitable maximum concentrations for the induction assay without profound antiproliferative effects. Proliferation was quantified by crystal violet staining of the surviving cells as described previously. Each experiment was performed at least in triplicate with n = 8 wells for each concentration (0.1–100 µM). The IC20 for proliferation inhibition by venetoclax was 8.4 ± 1.0 µM; thus, the maximum concentration for the induction assay was set to 10 µM, ensuring that about 80% of the cells will survive. […]"}, "AhR": {"tested_on": "T1, AhR", "T1 construct": "endogenous in cells; host or cells: AZ-AHR (HepG2 with stably integrated AhR-responsive luciferase reporter; gift of Z. Dvorak)", "test": "AhR reporter gene assay in AZ-AHR cells", "type": "cell-based, human", "conditions": "24 h, up to 10 µM", "method": "AZ-AHR cells. The human hepatoma cell line HepG2 stably transfected with a construct containing several AhR binding sites upstream of luciferase reporter gene was used to investigate whether venetoclax can activate AhR. Cells were kindly provided by Z. Dvorak (Palacky University, Olomouc, Czech Republic).\nTo test whether the induction of CYP1A1 or UGTs can be attributed to AhR activation by venetoclax, an AhR reporter gene assay was applied. 60,000 AZ-AhR cells were seeded into each well of 96-well plates with clear bottom and clear lid for luminometry. After incubation for 24 h, cells were treated in triplicate with venetoclax (0.1–10 µM) or vehicle control (0.2% DMSO) for a further 24 h. The assay was performed with the Steady-Glo™ Luciferase Assay System according to the manufacturer’s instructions. Drug-induced increases of AhR receptor activity were normalized to activity of non-drug treated controls, which was set to 1 (= 100%). The experiment was performed in triplicate."}, "OATP1B3": {"biological_target": "T2, OATP1B3 (Homo sapiens, UniProt Q9NPD5)", "T2 construct": "expressed in transfected cells; host or cells: HEK293 (HEK-OATP1B3; gift of D. Keppler)", "T2 sequence (Q9NPD5 whole entry)": "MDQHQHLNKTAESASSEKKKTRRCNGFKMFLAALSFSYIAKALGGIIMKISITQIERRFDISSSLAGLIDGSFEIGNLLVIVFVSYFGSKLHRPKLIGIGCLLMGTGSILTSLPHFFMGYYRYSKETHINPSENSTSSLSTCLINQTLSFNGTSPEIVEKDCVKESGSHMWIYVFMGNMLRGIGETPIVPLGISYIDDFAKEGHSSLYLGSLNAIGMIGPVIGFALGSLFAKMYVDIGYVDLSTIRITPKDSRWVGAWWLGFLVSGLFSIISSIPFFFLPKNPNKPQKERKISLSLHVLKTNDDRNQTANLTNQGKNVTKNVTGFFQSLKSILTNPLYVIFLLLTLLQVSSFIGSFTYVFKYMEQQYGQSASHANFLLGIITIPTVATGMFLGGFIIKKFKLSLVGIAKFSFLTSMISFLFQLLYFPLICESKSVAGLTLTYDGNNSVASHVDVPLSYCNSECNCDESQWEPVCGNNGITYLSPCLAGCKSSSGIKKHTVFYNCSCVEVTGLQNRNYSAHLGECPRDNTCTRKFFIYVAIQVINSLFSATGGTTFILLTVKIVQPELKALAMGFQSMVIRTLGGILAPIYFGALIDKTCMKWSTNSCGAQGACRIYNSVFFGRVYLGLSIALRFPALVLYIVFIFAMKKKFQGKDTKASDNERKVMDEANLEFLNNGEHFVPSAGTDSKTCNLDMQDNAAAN", "test": "OATP1B3 inhibition, 8-FcA uptake in HEK-OATP1B3 cells", "type": "in vitro ADME", "method": "HEK293 cells. For assessing inhibition of OATP1B1 and OATP1B3, the human embryonic kidney cell line HEK293 stably transfected with OATP1B1 (HEK-OATP1B1), OATP1B3 (HEK-OATP1B3), or the empty control vector (HEK293-VCG418) were used. Cells were cultured under standard cell culture conditions with DMEM supplemented with 10% FCS, 2 mM of glutamine, 100 U/mL of penicillin, 100 µg/mL of streptomycin sulfate, and 800 µg/mL of G418 to maintain over-expression. Cells were kindly provided by D. Keppler (German Cancer Research Centre, Heidelberg, Germany).\nInhibition of OATP1B1 and OATP1B3 was analyzed in HEK-OATP1B1 and HEK-OATP1B3 cells by quantifying the uptake of the fluorescent substrate 8-FcA by flow cytometry as described previously. HEK293-VCG418 cells were used as a control. Inhibition of OATPs leads to a reduced uptake of 8-FcA into the cells. Each experiment was performed at least in triplicate, and venetoclax was tested from 0.05 up to 100 µM."}, "UGT1A3": {"tested_on": "UGT1A3", "test": "Induction assay, UGT1A3 mRNA by real-time RT-PCR in LS180 cells", "type": "in vitro ADME, human", "conditions": "four days, 10 µM", "method": "as §1, §2, §3"}}, "data": [{"smiles": "CC1(C)CCC(CN2CCN(c3ccc(C(=O)NS(=O)(=O)c4ccc(NCC5CCOCC5)c([N+](=O)[O-])c4)c(Oc4cnc5[nH]ccc5c4)c3)CC2)=C(c2ccc(Cl)cc2)C1", "note": "[Venetoclax]", "values": [{"measurement": "mRNA expression of UGT1A9", "setting": "UGT1A9", "result": "induced"}, {"measurement": "IC50", "setting": "MDCKII", "result": "15.2 ± 2.4", "unit": "µM"}, {"measurement": "luciferase activity in the AhR reporter gene assay", "setting": "AhR", "result": "did not increase"}, {"measurement": "IC50", "setting": "OATP1B3", "result": "26 ± 9.6", "unit": "µM"}, {"measurement": "mRNA expression of UGT1A3", "setting": "UGT1A3", "result": "induced"}]}]}
